Read-outs that look alike come from different tables or passages of the source.
Tests used:
TEM-1 = target: T1, TEM-1 (Escherichia coli, UniProt P62593); experiment: β-lactamase inhibitory activity, IC50 (nitrocefin hydrolysis); assay type: biochemical
T1 construct: made in house; host or cells: E. coli

SHV-1 = target: T2, SHV-1 (Klebsiella pneumoniae, UniProt P0AD64); experiment: biochemical
T2 construct: made in house; host or cells: E. coli

SHV-12 = target: T3, SHV-12 (Klebsiella pneumoniae, UniProt P0AD64, E235K/G234S/L31Q); experiment: β-lactamase inhibitory activity, IC50 (nitrocefin hydrolysis); assay type: biochemical
T3 construct: made in house; host or cells: E. coli

CTX-M-15 = target: T4, CTX-M-15 (Escherichia coli, UniProt Q9EXV5); experiment: biochemical
T4 construct: made in house; host or cells: E. coli

KPC-2 = target: T5, KPC-2 (Klebsiella pneumoniae, UniProt Q9F663); experiment: biochemical
T5 construct: made in house; host or cells: E. coli

OXA-40 = target: T6, OXA-40 (Acinetobacter baumannii, UniProt Q8RLA6); experiment: biochemical
T6 construct: made in house; host or cells: E. coli
Protocol: (§1) Method 1: β-Lactamase Inhibitory Activity, Determination of IC50 (Table 1)
(§2) Enzymes were cloned in E. coli expression vector, expressed and purified in house using classical procedures. […] After 30 min of pre-incubation at room temperature, 155 μL of NCF (100 μM final) were finally added in each well. […] Enzyme activity was obtained by subtracting the background from the final signal, and was converted to enzyme inhibition using non inhibited wells. IC50 curves were fitted to a classical Langmuir equilibrium model with Hill slope using XLFIT (IDBS).

P99 ampC = target: T7, P99 ampC (Enterobacter cloacae, UniProt P05364); experiment: biochemical
T7 construct: made in house; host or cells: E. coli
Protocol: as §1, §2

PAE ampC = PAE ampC (Pseudomonas aeruginosa, UniProt P24735); experiment: biochemical
Protocol: as §1, §2

SAU PC1 = SAU PC1 (Staphylococcus aureus, UniProt P00807); experiment: biochemical
Protocol: as §1, §2

[1] = target: CMY-37 (Citrobacter freundii); experiment: β-lactamase inhibitory activity, IC50 (nitrocefin hydrolysis); assay type: biochemical
Protocol: as §1, §2

OXA-11 = target: T8, OXA-11 (Pseudomonas aeruginosa, UniProt Q06778); experiment: as above; assay type: biochemical
T8 construct: made in house; host or cells: E. coli
Protocol: as §1, §2

OXA-58 = target: T9, OXA-58 (Acinetobacter baumannii, UniProt Q2TR58); experiment: as above; assay type: biochemical
T9 construct: made in house; host or cells: E. coli
Protocol: as §1, §2

OXA-1 = target: T10, OXA-1 (Escherichia coli, UniProt P13661); experiment: biochemical
T10 construct: made in house; host or cells: E. coli

OXA-15 = target: T11, OXA-15 (Pseudomonas aeruginosa, UniProt Q51574); experiment: biochemical
T11 construct: made in house; host or cells: E. coli

OXA-23 = target: T12, OXA-23 (Acinetobacter baumannii, UniProt Q9L4P2); experiment: biochemical
T12 construct: made in house; host or cells: E. coli

OXA-48 = target: T13, OXA-48 (Klebsiella pneumoniae, UniProt Q6XEC0); experiment: biochemical
T13 construct: made in house; host or cells: E. coli

OXA-51 = OXA-51 (Acinetobacter baumannii, UniProt Q5QT35)
Protocol: as §1, §2

[2] = Rat intraduodenal bioavailability determination (Method 3); assay type: in vivo, Sprague-Dawley (SD) rats; settings: male, Sprague-Dawley, AF1 titrated in plasma
[3] = Mouse oral bioavailability determination, CEFIXIME/Example 3 combination (Method 4); parameters: species or system Swiss Mouse; settings: male, Swiss; Mouse; intravenous 30 mg/kg; AF1 titrated in plasma; read-out: AUC0-∞
Protocol: Water and food were available ad libitum throughout the study. Mouse were handled in accordance with the institutional and national guidelines for the care and use of laboratory animals. […] Drugs were administered by oral gavage using feeding needle. […] Plasma samples were stored at -80° C. until bioanalysis. […] Plasma samples bioanalysis and data analysis The plasma samples (20 μl) were thawed at 0° C. […] Standard samples were prepared by spiking the blank plasma into concentrations 10-5 000 ng/ml and otherwise treated as the samples. […] Mass spectrometric detection involved electrospray ionization in the negative mode followed by multiple reaction monitoring of the drugs and internal standard transitions. Actual drug concentrations were deduced from interpolation of the standard curve. The pharmacokinetic parameters were calculated using XLfit (IDBS) and Excel (Microsoft) software, using standard non-compartmental methods. The intraduodenal bioavailability was calculated by dividing the AUC obtained from the intraduodenal administration by the AUC obtained from the intravenous administration.

[4] = system: Proteus mirabilis (PMI) isolates; experiment: microbe, parasite or virus in culture; assay type: cell-based
Protocol: (§3) Method 2: MIC of Compounds Alone and Combined with Antibacterials Against Bacterial Isolates.
(§4) Compounds of the present invention were assessed against genotyped bacterial strains (Table 3, 4) alone or in combination with an antibacterial (Table 2). […] Log phase bacterial suspensions were adjusted to a final density of 5·10^5 CFU/mL in cation-adjusted Mueller-Hinton broth (ca-MHB; Becton-Dickinson and Company) and added to each well (98 μL). Microplates were incubated for 16-20 h at 35° C. in ambient air. The MIC of the compounds was defined as the lowest concentration of said compounds that prevented bacterial growth as read by visual inspection. The MIC of ATB at each compound concentration was defined as the lowest concentration of ATB that prevented bacterial growth as read by visual inspection.

[5] = system: Citrobacter freundii (CFR) isolates; experiment: MIC of compounds alone and combined with antibacterials, broth microdilution (CLSI); assay type: cell-based; settings: Citrobacter freundii
Protocol: as §3, §4

[6] = system: Enterobacter aerogenes (EAE) isolates; experiment: as above; assay type: cell-based; settings: Klebsiella aerogenes
Protocol: as §3, §4

[7] = system: Escherichia coli (ECO) isolates; experiment: as above; assay type: cell-based; settings: Escherichia coli, alone
Protocol: as §3, §4

[8] = system: Klebsiella pneumoniae (KPN) isolates; experiment: as above; assay type: cell-based
Protocol: as §3, §4

[9] = system: Providencia stuartii (PST) isolates; experiment: as above; assay type: cell-based; settings: Providencia stuartii
Protocol: as §3, §4

[10] = system: Serratia marcescens (SMA) isolates; experiment: as above; assay type: cell-based; settings: Serratia marcescens
Protocol: as §3, §4

T12 sequence (Q9L4P2 18-273): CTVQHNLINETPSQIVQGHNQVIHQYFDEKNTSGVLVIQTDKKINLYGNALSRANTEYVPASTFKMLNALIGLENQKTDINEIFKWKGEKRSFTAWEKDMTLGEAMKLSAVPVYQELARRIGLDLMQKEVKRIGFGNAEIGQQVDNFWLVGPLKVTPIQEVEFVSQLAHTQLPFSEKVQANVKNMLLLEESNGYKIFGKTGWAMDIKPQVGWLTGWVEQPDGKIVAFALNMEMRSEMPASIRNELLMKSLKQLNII
T9 sequence (Q2TR58 19-280, species assumed): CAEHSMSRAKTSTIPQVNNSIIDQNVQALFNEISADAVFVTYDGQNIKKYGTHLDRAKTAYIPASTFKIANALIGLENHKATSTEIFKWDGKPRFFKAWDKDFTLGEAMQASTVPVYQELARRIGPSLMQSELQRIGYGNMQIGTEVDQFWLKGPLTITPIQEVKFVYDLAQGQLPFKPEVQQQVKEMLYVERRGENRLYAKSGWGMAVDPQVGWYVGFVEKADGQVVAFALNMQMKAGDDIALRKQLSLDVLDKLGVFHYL
Sequence of CMY-37 (Citrobacter freundii) (A0A9R8 21-381): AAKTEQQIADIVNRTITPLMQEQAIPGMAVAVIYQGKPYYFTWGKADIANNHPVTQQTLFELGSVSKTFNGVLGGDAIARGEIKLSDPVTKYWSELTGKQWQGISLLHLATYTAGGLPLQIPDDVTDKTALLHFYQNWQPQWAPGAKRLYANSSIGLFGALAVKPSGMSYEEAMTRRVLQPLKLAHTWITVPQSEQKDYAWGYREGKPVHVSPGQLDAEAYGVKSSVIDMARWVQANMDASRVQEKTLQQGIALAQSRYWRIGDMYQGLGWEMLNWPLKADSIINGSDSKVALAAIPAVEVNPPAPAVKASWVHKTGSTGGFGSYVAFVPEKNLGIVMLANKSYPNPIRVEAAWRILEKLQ
T2 sequence (P0AD64 22-286): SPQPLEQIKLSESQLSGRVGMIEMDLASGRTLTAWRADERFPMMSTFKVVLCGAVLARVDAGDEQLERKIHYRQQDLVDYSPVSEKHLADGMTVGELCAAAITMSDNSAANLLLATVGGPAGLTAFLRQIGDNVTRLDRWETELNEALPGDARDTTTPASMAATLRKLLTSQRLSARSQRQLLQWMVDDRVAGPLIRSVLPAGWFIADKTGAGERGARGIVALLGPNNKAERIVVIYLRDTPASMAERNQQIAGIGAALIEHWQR
T5 sequence (Q9F663 25-293 limits assumed): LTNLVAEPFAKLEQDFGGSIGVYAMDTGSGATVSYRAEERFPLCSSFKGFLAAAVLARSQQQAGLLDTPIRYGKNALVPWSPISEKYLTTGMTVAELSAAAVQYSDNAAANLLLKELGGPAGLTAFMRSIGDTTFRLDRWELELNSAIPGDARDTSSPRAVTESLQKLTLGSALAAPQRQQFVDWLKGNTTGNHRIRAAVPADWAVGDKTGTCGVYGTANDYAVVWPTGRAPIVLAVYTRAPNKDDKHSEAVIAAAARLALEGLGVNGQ
T10 sequence (P13661 26-276): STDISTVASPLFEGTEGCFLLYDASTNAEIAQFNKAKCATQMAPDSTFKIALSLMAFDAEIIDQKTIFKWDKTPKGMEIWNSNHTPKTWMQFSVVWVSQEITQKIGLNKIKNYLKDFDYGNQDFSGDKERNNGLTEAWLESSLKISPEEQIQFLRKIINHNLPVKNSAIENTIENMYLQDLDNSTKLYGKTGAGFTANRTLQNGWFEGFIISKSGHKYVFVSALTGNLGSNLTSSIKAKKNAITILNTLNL
T6 sequence (Q8RLA6 entry or part of it): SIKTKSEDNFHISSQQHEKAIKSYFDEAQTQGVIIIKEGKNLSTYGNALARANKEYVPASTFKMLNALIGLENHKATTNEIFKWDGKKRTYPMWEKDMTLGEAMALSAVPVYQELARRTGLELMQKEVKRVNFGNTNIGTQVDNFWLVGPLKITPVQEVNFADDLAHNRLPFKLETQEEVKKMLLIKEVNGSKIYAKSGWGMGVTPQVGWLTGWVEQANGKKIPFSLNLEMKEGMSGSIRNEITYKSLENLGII
T7 sequence (P05364 21-381): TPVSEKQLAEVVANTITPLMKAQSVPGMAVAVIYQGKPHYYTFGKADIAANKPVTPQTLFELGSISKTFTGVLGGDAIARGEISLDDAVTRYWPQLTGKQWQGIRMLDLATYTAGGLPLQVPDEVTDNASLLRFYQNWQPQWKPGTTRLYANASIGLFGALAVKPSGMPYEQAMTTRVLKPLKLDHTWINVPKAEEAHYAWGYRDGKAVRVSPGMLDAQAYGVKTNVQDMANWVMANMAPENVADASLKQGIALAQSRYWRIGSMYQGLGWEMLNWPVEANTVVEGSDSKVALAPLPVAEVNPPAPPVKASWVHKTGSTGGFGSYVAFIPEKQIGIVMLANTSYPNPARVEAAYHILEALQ
T4 sequence (Q9EXV5 entry or part of it): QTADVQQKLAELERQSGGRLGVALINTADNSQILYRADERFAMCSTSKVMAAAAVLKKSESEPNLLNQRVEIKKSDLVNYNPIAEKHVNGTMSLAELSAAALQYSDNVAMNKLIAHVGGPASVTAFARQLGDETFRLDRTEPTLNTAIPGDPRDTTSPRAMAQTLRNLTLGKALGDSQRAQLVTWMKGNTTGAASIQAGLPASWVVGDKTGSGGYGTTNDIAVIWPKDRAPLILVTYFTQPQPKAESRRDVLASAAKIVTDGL
T8 sequence (Q06778 21-266): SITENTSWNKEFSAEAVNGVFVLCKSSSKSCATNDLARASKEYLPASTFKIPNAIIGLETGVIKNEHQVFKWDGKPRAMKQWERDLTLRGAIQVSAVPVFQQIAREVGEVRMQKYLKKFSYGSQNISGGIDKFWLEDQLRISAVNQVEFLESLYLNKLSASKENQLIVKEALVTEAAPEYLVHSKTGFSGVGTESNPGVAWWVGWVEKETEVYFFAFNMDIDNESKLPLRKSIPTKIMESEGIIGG
T1 sequence (P62593 24-286 limits assumed): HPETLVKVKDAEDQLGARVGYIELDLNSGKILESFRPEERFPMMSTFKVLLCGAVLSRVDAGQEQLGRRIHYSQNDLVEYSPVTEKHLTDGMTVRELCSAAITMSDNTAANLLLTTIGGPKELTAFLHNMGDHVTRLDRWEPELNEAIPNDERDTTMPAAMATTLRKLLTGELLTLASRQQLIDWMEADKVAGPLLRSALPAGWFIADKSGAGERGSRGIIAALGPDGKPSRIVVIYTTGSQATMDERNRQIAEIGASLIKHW
T11 sequence (Q51574 22-275): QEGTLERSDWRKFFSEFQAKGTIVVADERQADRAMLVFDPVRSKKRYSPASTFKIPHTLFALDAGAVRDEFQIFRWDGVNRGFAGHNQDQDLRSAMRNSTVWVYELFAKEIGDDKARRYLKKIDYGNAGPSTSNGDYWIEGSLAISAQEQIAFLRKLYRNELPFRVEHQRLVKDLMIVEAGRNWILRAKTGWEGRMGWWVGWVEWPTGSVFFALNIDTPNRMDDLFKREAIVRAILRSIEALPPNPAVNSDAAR
Sequence of SAU PC1 (P00807 25-281): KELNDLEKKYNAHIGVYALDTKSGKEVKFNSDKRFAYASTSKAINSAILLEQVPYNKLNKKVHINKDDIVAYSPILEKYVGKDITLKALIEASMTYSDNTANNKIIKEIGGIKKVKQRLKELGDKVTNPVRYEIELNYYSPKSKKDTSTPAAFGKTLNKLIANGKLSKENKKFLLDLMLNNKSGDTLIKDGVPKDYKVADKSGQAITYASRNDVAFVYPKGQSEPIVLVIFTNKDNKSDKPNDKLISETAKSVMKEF
Sequence of OXA-51 (Q5QT35 26-274): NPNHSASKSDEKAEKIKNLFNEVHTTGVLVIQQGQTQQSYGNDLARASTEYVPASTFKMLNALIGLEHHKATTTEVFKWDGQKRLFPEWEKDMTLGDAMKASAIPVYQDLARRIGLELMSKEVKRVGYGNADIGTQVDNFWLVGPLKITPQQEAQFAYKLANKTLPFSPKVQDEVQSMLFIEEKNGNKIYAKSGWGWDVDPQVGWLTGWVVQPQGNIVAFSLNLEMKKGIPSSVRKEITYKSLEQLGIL
T13 sequence (Q6XEC0 23-265 limits assumed): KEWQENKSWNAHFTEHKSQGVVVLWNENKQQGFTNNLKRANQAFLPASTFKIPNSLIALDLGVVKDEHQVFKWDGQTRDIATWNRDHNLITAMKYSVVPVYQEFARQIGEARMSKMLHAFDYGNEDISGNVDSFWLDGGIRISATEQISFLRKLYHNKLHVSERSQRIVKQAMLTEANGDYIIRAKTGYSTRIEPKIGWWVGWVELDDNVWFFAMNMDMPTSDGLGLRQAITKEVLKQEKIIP
Sequence of PAE ampC (P24735 27-397): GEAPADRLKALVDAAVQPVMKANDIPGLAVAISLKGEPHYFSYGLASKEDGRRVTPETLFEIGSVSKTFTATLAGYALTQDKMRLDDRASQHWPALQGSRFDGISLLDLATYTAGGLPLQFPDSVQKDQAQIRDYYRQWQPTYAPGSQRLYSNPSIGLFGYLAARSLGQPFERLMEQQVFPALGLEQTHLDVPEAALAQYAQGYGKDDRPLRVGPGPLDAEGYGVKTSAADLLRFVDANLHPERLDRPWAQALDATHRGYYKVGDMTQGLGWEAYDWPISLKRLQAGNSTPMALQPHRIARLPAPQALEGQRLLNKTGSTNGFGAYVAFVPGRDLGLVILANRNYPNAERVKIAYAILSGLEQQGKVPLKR
T3 sequence (P0AD64 22-286 L31Q/G234S/E235K): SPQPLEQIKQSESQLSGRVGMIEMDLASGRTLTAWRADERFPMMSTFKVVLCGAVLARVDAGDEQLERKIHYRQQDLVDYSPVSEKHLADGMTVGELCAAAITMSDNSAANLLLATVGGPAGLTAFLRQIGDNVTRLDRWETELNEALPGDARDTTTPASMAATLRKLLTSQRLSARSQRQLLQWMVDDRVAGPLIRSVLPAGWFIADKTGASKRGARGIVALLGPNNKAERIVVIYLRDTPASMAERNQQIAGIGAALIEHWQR

SMILES | IC50 (SHV-1) [nM] | IC50 (SHV-12) [nM] | IC50 (CTX-M-15) [nM] | IC50 (KPC-2) [nM] | IC50 (OXA-40) [nM] | IC50 (P99 ampC) [nM] | IC50 (PAE ampC) [nM] | IC50 (SAU PC1) [nM] | IC50 [1] [nM] | IC50 (OXA-11) [nM] | IC50 (OXA-58) [nM] | IC50 (OXA-1) [nM] | IC50 (OXA-15) [nM] | IC50 (OXA-23) [nM] | IC50 (OXA-48) [nM] | further results
NC(=O)[C@@H]1CC[C@@H]2CN1C(=O)N2OC(F)(F)C(=O)[O-].[Na+] [AF1] | 0.12 | 1.1 | 0.21 | 40 | 2100 | 550 | 660 | 71 | 740 | 1000 | 400 | 1100 | 71 | 1700 | 75 | IC50 (TEM-1; TEM-1, 30 min pre-incubation, nitrocefin 100 μM, read-out: IC50): 0.22 nM; IC50 (OXA-51): 1700 nM; AUC(0-inf) ([2]; intravenous 10 mg/kg): 4130 ng·h/mL; AUC(0-inf) ([2]; intravenous 20 mg/kg, Phosphate pH 7.4, solution): 12500 ng·h/mL; AUC(0-inf) [3]: 11200 ng·h/mL
N#C[C@@H]1CC[C@@H]2CN1C(=O)N2OC(F)(F)C(=O)[O-].[Na+] [AF2, sodium 2-[[(2S,5R)-2-cyano-7-oxo-1,6-diazabicyclo[3.2.1]octan-6-yl]oxy]-2,2-difluoro-acetate] | 1.4 | 1.1 | 0.16 | 12 | 12 | 54 | 140 | 3.1 | 70 | 13 | 2.1 | 11 | 4 | 11 | 0.7 | IC50 (TEM-1): 0.96 nM; IC50 (OXA-51; OXA-51, 30 min pre-incubation, nitrocefin 100 μM): 51 nM; MIC ([4]; PMI UFR127, alone): >32 µg/mL; MIC ([4]; Proteus mirabilis): > 32 µg/mL; MIC [5]: > 32 µg/mL; MIC [6]: > 32 µg/mL; MIC ([7]; ECO 190317): > 32 µg/mL; MIC ([7]; ECO 190457): 16 µg/mL; MIC ([7]; ECO UFR16): > 32 µg/mL; MIC ([7]; ECO UFR20): > 32 µg/mL; MIC ([7]; ECO UFR61O): > 32 µg/mL; MIC ([7]; ECO UFR209): 32 µg/mL; MIC ([8]; KPN 131119, alone): >32 µg/mL; MIC ([8]; KPN 190270, alone): >32 µg/mL; MIC ([8]; KPN UFR25, alone): >32 µg/mL; MIC ([8]; KPN UFR66, alone): >32 µg/mL; MIC ([8]; KPN UFR68, alone): >32 µg/mL; MIC ([8]; Klebsiella pneumoniae): > 32 µg/mL; MIC [9]: > 32 µg/mL; MIC [10]: > 32 µg/mL
